Patent publication US11384078B2, “5,6-fused-bicyclic compounds and compositions for the treatment of parasitic diseases” (NOVARTIS AG, priority 2017, dated 2022)
Where two headings read alike, the source gives them in different places.

Assays:
Format in all cases: cell-based
[1] = system: L. donovani HU3 strain in mouse peritoneal macrophages; experiment: Assay for inhibition of parasitemia of Leishmania donovani in mouse macrophages (SYBR Green nuclei count, high-content imaging); conditions: Leishmania donovani, Peritoneal macrophage, read-out: L. donovani in Mouse Macrophages EC50
From the text: Assay for Inhibition of Parasitemia of Leishmania donovani in Mouse Macrophages
The assay measures the increase in the parasite number in the assayed plate well using a DNA intercalating dye, SYBR Green I® dye (INVITROGEN) to stain Leishmania cell nuclei. L. donovani HU3 strain is propagated by infecting BALB/c mice through tail vein injection with 10^7 Leishmania parasites. Infected mice are allowed to develop infection during 9-11 weeks post-infection. During this time, the parasites accumulate in the infected mouse spleens to large numbers, and the infected mice serve as the source of parasites for the in vitro measurement of compound efficacies. To assay a compound for anti-leishmanial activity, peritoneal macrophages isolated from non-infected BALB/c mice are seeded into 384-well plates at density 2×10^4 macrophages per well in […] of medium (RPM11640, 10% fetal serum albumin, 10 mM HEPES, 1 mM sodium pyruvate, 1% Pen/Strep). Subsequently, the seeded plates are placed into an incubator set to maintain 37° C. temperature and atmosphere with 5% CO2.
The next day, Leishmania parasites are isolated from the spleens of mice infected for 9-11 weeks and 4×10^5 isolated parasites in […] of the above media are added to each plate well. Plates are then returned into incubators and infection is allowed to proceed for 24 hours. After the infection of macrophages is completed, […] of compounds of the invention in the above medium, which also contains 5% DMSO, are added to plate wells containing infected macrophages. At the same time control compounds (miltefosine and amphotericin B) and DMSO are added to plates to serve as the positive and negative controls, respectively. After the compound addition, the plates are returned into incubator and cells infected with parasites are cultured for 5 days. At the end of cultivation, […] of 8% paraformaldehyde is added to plate wells and incubated for 15 min at room temperature. Following the incubation, the paraformaldehyde from plate wells is aspirated, and […] of PBS containing 0.2% Triton X-100 is added to wells. After 15 min incubation, the solution is aspirated from wells again, and replaced with Sybr® Green Dye solution in PBS (1:125,000 dilution). Infected cells are imaged with Evotec Opera high-content microscope, and the number of parasites in well is determined by counting parasite nuclei visualized by staining with Sybr® Green dye.

[2] = system: Trypanosoma cruzi amastigotes cultured in 3T3 fibroblast cells; experiment: Assay for growth inhibition of kinetoplastid parasite Trypanosoma cruzi (beta-galactosidase Tulahuen strain, CPRG readout); conditions: Trypanosoma cruzi, Fibroblast, T. cruzi amastigotes in 3T3 fibroblast cells; read-out: Buckner infectious T. cruzi EC50
Procedure, shortened: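 3T3 fibroblasts (1,000 cells/well) plated overnight, treated with compound in DMSO, then infected with 10,000 Lac-Z-expressing Tulahuen trypomastigotes. After 6 days, 0.6 mM CPRG with 0.6% NP-40 added for 2 h at room temperature; absorbance gives relative intracellular amastigote numbers. Benznidazole and nifurtimox serve as positive controls.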

[3] = system: Leishmania donovani axenic amastigote; experiment: In vitro assay for growth inhibition of Leishmania donovani axenic amastigote (Cell TiterGlo luminescence); conditions: Leishmania donovani, L. donovani axenic amastigotes in vitro; read-out: L. donovani amastigotes EC50
Procedure, shortened: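 Compound-treated wells received 9600 axenic amastigotes in RPMI 1640-based medium at pH 5.5 (37 °C, 5% CO2). Growth measured as ATP luminescence (CellTiter-Glo) after 2-day incubation; DMSO and reference compounds served as controls.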

[4] = system: Trypanosoma brucei brucei (Lister 427) strain; experiment: Assay for growth inhibition against Trypanosoma brucei brucei (Cell TiterGlo ATP luminescence); conditions: Trypanosoma brucei, T. brucei brucei (Lister 427); read-out: T. Brucei (HAT) EC50
Procedure, shortened: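 Growth read-out is cellular ATP by CellTiter-Glo luminescence, measured 30 min after reagent addition, following 2-day incubation at 37 °C in CO2. Parasites (10,000/mL, HMI-9 plus 10% FBS and 10% serum plus) faced 10 threefold dilutions in duplicate; IC50 taken as 50% growth inhibition versus untreated.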

[5] = L. donovani in mouse peritoneal macrophages

Row | Structure (SMILES) | EC50 [1, 5] | EC50 [2] | EC50 [3] | EC50 [4] | EC50 [1]
1 | O=C(Nc1ccc(F)c(-n2cc3cc(N4CC5(CC5)C4)cnc3n2)c1)[C@H]1C[C@@H]1F (racemic) [Compound 272, (1R,2S)-N-[3-(5-{5-azaspiro[2.3]hexan-5-yl}-2H-pyrazolo[3,4-b]pyridin-2-yl]-4-fluorophenyl}-2-fluorocyclopropane-1-carboxamide] | 85 nM | 114 nM | 131 nM | 351 nM | 
2 | O=C(Nc1ccc(F)c(-n2cc3cc(-c4ccccn4)cnc3n2)c1)[C@@H]1C[C@@H]1F (racemic) [Compound 349, (1S,2S)-2-fluoro-N-{4-fluoro-3-[5-(pyridin-2-yl)-2H-pyrazolo[3,4-b]pyridin-2-yl]phenyl}cyclopropane-1-carboxamide] | 102 nM | 85 nM | 96 nM | 43 nM | 
3 | O=C(Nc1ccc(F)c(-n2cc3cc(-c4ccccn4)cnc3n2)c1)[C@@H]1C[C@H]1F (single isomer, unassigned) [Compound 256] | 38 nM | 5 nM | 11 nM | 27 nM | 
4 | CCC(C)c1cnc2nn(-c3cc(NC(=O)N4CC(F)(F)C4)ccc3F)cc2c1 (stereo not shown) [Compound 36, N-{3-[5-(butan-2-yl)-2H-pyrazolo[3,4-b]pyridin-2-yl]-4-fluorophenyl}-3,3-difluoroazetidine-1-carboxamide] | 250 nM |  | 210 nM |  | 
5 | O=C(Nc1ccc(F)c(-n2cc3cc(C4CCCCC4)cnc3n2)c1)N1CC[C@@H](F)C1 [Compound 44, (3R)-N-(3-{5-cyclohexyl-2H-pyrazolo[3,4-b]pyridin-2-yl}-4-fluorophenyl)-3-fluoropyrrolidine-1-carboxamide] | 32 nM | 22 nM | 29 nM |  | 
6 | CC(C)(C)c1cnc2nn(-c3cc(NC(=O)N4CC[C@@H](F)C4)ccc3F)cc2c1 [Compound 47, (3R)-N-(3-{5-tert-butyl-2H-pyrazolo[3,4-b]pyridin-2-yl}-4-fluorophenyl)-3-fluoropyrrolidine-1-carboxamide] | 27 nM | 2.8 nM | 23 nM |  | 
7 | O=C(Nc1ccc(F)c(-n2cc3cc(C4CC4)cnc3n2)c1)c1ccco1 [Compound 55, N-(3-{5-cyclopropyl-2H-pyrazolo[3,4-b]pyridin-2-yl}-4-fluorophenyl)furan-2-carboxamide] | 35 nM | 6.3 nM | 57 nM |  | 
8 | O=C(Nc1ccc(F)c(-n2cc3cc(C4CCCC4)cnc3n2)c1)c1ccco1 [Compound 56, N-(3-{5-cyclopentyl-2H-pyrazolo[3,4-b]pyridin-2-yl}-4-fluorophenyl)furan-2-carboxamide] | 550 nM |  | 240 nM |  | 
9 | CC(C)CCc1cnc2nn(-c3cc(NC(=O)c4ccco4)ccc3F)cc2c1 [Compound 63, N-{4-fluoro-3-[5-(3-methylbutyl)-2H-pyrazolo[3,4-b]pyridin-2-yl]phenyl}furan-2-carboxamide] | 90 nM | 14 nM | 89 nM |  | 
10 | CN(C)C(=O)Nc1ccc(F)c(-n2cc3cc(N(C)C)cnc3n2)c1 [Compound 143, 1-{3-[5-(dimethylamino)-2H-pyrazolo[3,4-b]pyridin-2-yl]-4-fluorophenyl}-3,3-dimethylurea] | 110 nM |  | 150 nM | < 23 nM | 
11 | O=C(Nc1ccc(F)c(-n2cc3cc(CC(F)(F)F)cnc3n2)c1)c1ccco1 [Compound 176, N-{4-fluoro-3-[5-(2,2,2-trifluoroethyl)-2H-pyrazolo[3,4-b]pyridin-2-yl]phenyl}furan-2-carboxamide] | 69 nM | 9.5 nM | 71 nM |  | 
12 | O=C(Nc1ccc(F)c(-n2cc3cc(N4CCN(CC(F)(F)F)CC4)cnc3n2)c1)N1CC(F)(F)C1 [Compound 252, 3,3-difluoro-N-(4-fluoro-3-{5-[4-(2,2,2-trifluoroethyl)piperazin-1-yl]-2H-pyrazolo[3,4-b]pyridin-2-yl}phenyl)azetidine-1-carboxamide] |  | 22 nM | 183 nM | 5 nM | 
13 | O=C(Nc1ccc(F)c(-n2cc3cc(N4CCN(CC(F)(F)F)CC4)cnc3n2)c1)N1CC[C@@H](F)C1 [Compound 253, (3R)-3-fluoro-N-(4-fluoro-3-{5-[4-(2,2,2-trifluoroethyl)piperazin-1-yl]-2H-pyrazolo[3,4-b]pyridin-2-yl}phenyl)pyrrolidine-1-carboxamide] |  | 4 nM | 3 nM | 5 nM | 
14 | [2H]C([2H])([2H])N(c1cnc2nn(-c3cc(NC(=O)N4CC(F)C4)ccc3F)cc2c1)C([2H])([2H])[2H] [Compound 314, N-(3-[5-[bis(^2H3)methylamino]-2H-pyrazolo[3,4-b]pyridin-2-yl]-4-fluorophenyl)-3-fluoroazetidine-1-carboxamide] | 6 nM | 5 nM | 242 nM |  | 
15 | O=C(Nc1ccc(F)c(-n2cc3cc(-n4cccn4)cnc3n2)c1)N1CC(F)C1 [Compound 319, 3-fluoro-N-{4-fluoro-3-[5-(1H-pyrazol-1-yl)-2H-pyrazolo[3,4-b]pyridin-2-yl]phenyl}azetidine-1-carboxamide] |  | 1 nM | 1 nM | 5 nM | 
16 | O=C(Nc1ccc(F)c(-n2cc3cc(C(F)(F)F)cnc3n2)c1)N1CCC1 [Compound 320, N-{4-fluoro-3-[5-(trifluoromethyl)-2H-pyrazolo[3,4-b]pyridin-2-yl]phenyl}azetidine-1-carboxamide] |  | 2 nM | 8 nM | 5 nM | 
17 | O=C(Nc1ccc(F)c(-n2cc3cc(C(F)(F)F)cnc3n2)c1)N1CC(F)C1 [Compound 321, 3-fluoro-N-{4-fluoro-3-[5-(trifluoromethyl)-2H-pyrazolo[3,4-b]pyridin-2-yl]phenyl}azetidine-1-carboxamide] |  | 11 nM | 18 nM | 5 nM | 
18 | O=C(Nc1ccc(F)c(-n2cc3cc(C(F)(F)F)cnc3n2)c1)N1CC[C@@H](F)C1 [Compound 322, (3R)-3-fluoro-N-{4-fluoro-3-[5-(trifluoromethyl)-2H-pyrazolo[3,4-b]pyridin-2-yl]phenyl}pyrrolidine-1-carboxamide] |  | 3 nM | 12 nM | 5 nM | 
19 | O=C(Nc1ccc(F)c(-n2cc3cc(N4CC5(CC5)C4)cnc3n2)c1)N1CCCC1 [Compound 337, N-[3-(5-{5-azaspiro[2.3]hexan-5-yl}-2H-pyrazolo[3,4-b]pyridin-2-yl)-4-fluorophenyl]pyrrolidine-1-carboxamide] | 13 nM | 4 nM |  | 7 nM | 
20 | Cc1nc(C)c(C(=O)Nc2ccc(F)c(-n3cc4cc(-c5ccccc5)cnc4n3)c2)o1 [Compound 352, N-(4-fluoro-3-(5-phenyl-2H-pyrazolo[3,4-b]pyridin-2-yl)phenyl)-2,4-dimethyloxazole-5-carboxamide] | 31 nM |  | 17 nM | 39 nM | 
21 | O=C(Nc1ccc(F)c(-n2cc3cc(-c4ccccc4)cnc3n2)c1)N1CC(F)(F)C1 [Compound 353, 3,3-difluoro-N-(4-fluoro-3-(5-phenyl-2H-pyrazolo[3,4-b]pyridin-2-yl)phenyl)azetidine-1-carboxamide] |  |  | 5 nM | 13 nM | 4 nM
